These results are taken from US20060148858A1, “1, 2-Azole derivatives with hypoglycemic and hypolipidemic activity” (priority 2002, published 2006).

A word on the melting point: it is the temperature of the solid-liquid transition. In turn, `CC(C)c1nn(-c2ccc(Cl)cn2)cc1CCCOc1ccccc1CC(=O)O` [Example 308, (2-{3-[1-(5-chloro-2-pyridinyl)-3-isopropyl-1H-pyrazol-4-yl]propoxy}phenyl)acetic acid] registered a melting point of 141 to 142 °C.
For `CC(C)c1nn(-c2ccccn2)cc1CCCOc1ccccc1CC(=O)O` [Example 309, (2-{3-[3-isopropyl-1-(2-pyridinyl)-1H-pyrazol-4-yl]propoxy}phenyl)acetic acid] the value was 140 to 142 °C.
Consider `CC(C)c1nn(-c2ccc(C(F)(F)F)cn2)cc1CCCOc1nn(C)cc1CCC(=O)O` [Example 310, 3-[3-(3-{3-isopropyl-1-[5-(trifluoromethyl)-2-pyridinyl]-1H-pyrazol-4-yl}propoxy)-1-methyl-1H-pyrazol-4-yl]propanoic acid], for which the melting point lay within 124 to 125 °C.
On to `COc1cccc(CC(=O)O)c1OCCCc1cn(-c2ccccn2)nc1C(C)C` [Example 312, (2-{3-[3-isopropyl-1-(2-pyridinyl)-1H-pyrazol-4-yl]propoxy}-3-methoxyphenyl)acetic acid], for which the melting point was 102 to 104 °C.
For `CCCc1nn(-c2ccc(C(F)(F)F)cn2)cc1CCCOc1nn(C)cc1CCC(=O)O` [Example 314, 3-[1-methyl-3-(3-{3-propyl-1-[5-(trifluoromethyl)-2-pyridinyl]-1H-pyrazol-4-yl}propoxy)-1H-pyrazol-4-yl]propanoic acid] the value was 103 to 104 °C.
For `CC(C)c1nn(-c2ccc(C(F)(F)F)cn2)cc1CCCOc1nn(C2CCCCC2)cc1CC(=O)O` [Example 317, [1-cyclohexyl-3-(3-{3-isopropyl-1-[5-(trifluoromethyl)-2-pyridinyl]-1H-pyrazol-4-yl}propoxy)-1H-pyrazol-4-yl]acetic acid] the value was 116 to 117 °C; for `CCCc1nn(-c2ccc(C(F)(F)F)cn2)cc1CCCOc1nn(C2CCCCC2)cc1CC(=O)O` [Example 320, [1-cyclohexyl-3-(3-{3-propyl-1-[5-(trifluoromethyl)-2-pyridinyl]-1H-pyrazol-4-yl}propoxy)-1H-pyrazol-4-yl]acetic acid], 127 to 128 °C.
For the molecule `CCCc1nn(-c2ccc(C(F)(F)F)cn2)cc1CCCOc1c(CC(=O)O)cnn1C` [Example 321, [1-methyl-5-(3-{3-propyl-1-[5-(trifluoromethyl)-2-pyridinyl]-1H-pyrazol-4-yl}propoxy)-1H-pyrazol-4-yl]acetic acid], the melting point was 136 to 138 °C.
The value for `COc1cccc(CCC(=O)O)c1OCCCc1cn(-c2ccc(C(F)(F)F)cn2)nc1C(C)C` [Example 323, 3-[2-(3-{3-isopropyl-1-[5-(trifluoromethyl)-2-pyridinyl]-1H-pyrazol-4-yl}propoxy)-3-methoxyphenyl]propanoic acid] was 112 to 113 °C; that for `COc1ccc(CCC(=O)O)cc1OCCCc1cn(-c2ccc(C(F)(F)F)cn2)nc1C(C)C` [Example 324, 3-[3-(3-{3-isopropyl-1-[5-(trifluoromethyl)-2-pyridinyl]-1H-pyrazol-4-yl}propoxy)-4-methoxyphenyl]propanoic acid] was 93 to 94 °C; that for `Cn1ncc(CC(=O)O)c1OCCCc1cn(-c2ccc(C(F)(F)F)cn2)nc1C1CCCCC1` [Example 325, [5-(3-{3-cyclohexyl-1-[5-(trifluoromethyl)-2-pyridinyl]-1H-pyrazol-4-yl}propoxy)-1-methyl-1H-pyrazol-4-yl]acetic acid] was 137 to 138 °C.
As to `CCCc1nn(-c2ccc(C(F)(F)F)cn2)cc1CCCOc1c(CC(=O)O)cnn1CC` [Example 326, [1-ethyl-5-(3-{3-propyl-1-[5-(trifluoromethyl)-2-pyridinyl]-1H-pyrazol-4-yl}propoxy)-1H-pyrazol-4-yl]acetic acid], the melting point was 125 to 126 °C.
For the molecule `Cc1cnn(CC(=O)O)c1OCCCc1cn(-c2ccc(C(F)(F)F)cn2)nc1C(C)C` [Example 327, [5-(3-{3-isopropyl-1-[5-(trifluoromethyl)-2-pyridinyl]-1H-pyrazol-4-yl}propoxy)-4-methyl-1H-pyrazol-1-yl]acetic acid], the melting point was 123 to 124 °C.
The value for `CCc1cnn(CC(=O)O)c1OCCCc1cn(-c2ccc(C(F)(F)F)cn2)nc1C(C)C` [Example 328, [4-ethyl-5-(3-{3-isopropyl-1-[5-(trifluoromethyl)-2-pyridinyl]-1H-pyrazol-4-yl}propoxy)-1H-pyrazol-1-yl]acetic acid] was 111 to 112 °C; that for `CCCc1nn(-c2ccc(C(F)(F)F)cn2)cc1CCCOc1c(C)cnn1CC(=O)O` [Example 329, [4-methyl-5-(3-{3-propyl-1-[5-(trifluoromethyl)-2-pyridinyl]-1H-pyrazol-4-yl}propoxy)-1H-pyrazol-1-yl]acetic acid] was 145 to 146 °C.
The molecule `CCc1cnn(CC(=O)O)c1OCCCc1cn(-c2ccc(C(F)(F)F)cn2)nc1C(CC)CC` [Example 330, [4-ethyl-5-(3-{3-(1-ethylpropyl)-1-[5-(trifluoromethyl)-2-pyridinyl]-1H-pyrazol-4-yl}propoxy)-1H-pyrazol-1-yl]acetic acid] had a melting point of 124 to 125 °C.
`CCCc1nn(-c2ccc(C(F)(F)F)cn2)cc1CCCOc1c(CC)cnn1CC(=O)O` [Example 331, [4-ethyl-5-(3-{3-propyl-1-[5-(trifluoromethyl)-2-pyridinyl]-1H-pyrazol-4-yl}propoxy)-1H-pyrazol-1-yl]acetic acid] showed a melting point of 135 to 136 °C.
In turn, `COc1cccc(CC(=O)O)c1OCCCc1cn(-c2ncc(Cl)cc2Cl)nc1C(C)C` [Example 336, (2-{3-[1-(3,5-dichloro-2-pyridyl)-3-isopropyl-1H-pyrazol-4-yl]propoxy}-3-methoxyphenyl)acetic acid] had a melting point of 105 to 106 °C.
In the case of `CCc1cccc(CC(=O)O)c1OCCCc1cn(-c2ccc(C(F)(F)F)nn2)nc1C(CC)CC` [Example 341, [3-ethyl-2-(3-{3-(1-ethylpropyl)-1-[6-(trifluoromethyl)pyridazin-3-yl]-1H-pyrazol-4-yl}propoxy)phenyl]acetic acid], the melting point lay in the range of 93 to 94 °C.
Take `COc1cccc(CC(=O)O)c1OCCCc1cn(-c2nnc(C(F)(F)F)s2)nc1C(C)C` [Example 344, [2-(3-{3-isopropyl-1-[5-(trifluoromethyl)-1,3,4-thiadiazol-2-yl]-1H-pyrazol-4-yl}propoxy)-3-methoxyphenyl]acetic acid]: the melting point is 114 to 115 °C.
As to `COc1cccc(CC(=O)O)c1OCCCc1cn(-c2ccc(C(F)(F)F)cn2)nc1C(C)(C)C` [Example 345, [2-(3-{3-tert-butyl-1-[5-(trifluoromethyl)-2-pyridinyl]-1H-pyrazol-4-yl}propoxy)-3-methoxyphenyl]acetic acid], the melting point lay within 94 to 95 °C.
For the molecule `Cc1cccc(CC(=O)O)c1OCCCc1cn(-c2ccc(C(F)(F)F)cn2)nc1C(C)(C)C` [Example 346, [2-(3-{3-tert-butyl-1-[5-(trifluoromethyl)-2-pyridinyl]-1H-pyrazol-4-yl}propoxy)-3-methylphenyl]acetic acid], the melting point was 86 to 87 °C.
Take `CCc1cccc(CC(=O)O)c1OCCCc1cn(-c2ccc(C(F)(F)F)cn2)nc1C(C)(C)C` [Example 347, [2-(3-{3-tert-butyl-1-[5-(trifluoromethyl)-2-pyridinyl]-1H-pyrazol-4-yl}propoxy)-3-ethylphenyl]acetic acid]: the melting point was 98 to 99 °C.
`CCC(CC)c1nn(-c2ccc(C(F)(F)F)cn2)cc1CCCOc1c(CC(=O)O)ccnc1C` [Example 348, [3-(3-{3-(1-ethylpropyl)-1-[5-(trifluoromethyl)-2-pyridinyl]-1H-pyrazol-4-yl}propoxy)-2-methyl-4-pyridinyl]acetic acid] registered a melting point of 78 to 79 °C.
For `CCC(CC)c1nn(-c2ccc(Br)cn2)cc1CCCOc1c(C)cccc1CC(=O)O` [Example 353, (2-{3-[1-(5-bromo-2-pyridinyl)-3-(1-ethylpropyl)-1H-pyrazol-4-yl]propoxy}-3-methylphenyl) acetic acid], the melting point was 120 to 121 °C.
In turn, `CCc1cccc(CC(=O)O)c1OCCCc1cn(-c2ccc(Br)cn2)nc1C(CC)CC` [Example 355, (2-{3-[1-(5-bromo-2-pyridinyl)-3-(1-ethylpropyl)-1H-pyrazol-4-yl]propoxy}-3-ethylphenyl)acetic acid] returned a melting point of 123 °C.
On to `CC(C)c1cccc(CC(=O)O)c1OCCCc1cn(-c2ccc(C(F)(F)F)cn2)nc1C(C)C` [Example 357, [3-isopropyl-2-(3-{3-isopropyl-1-[5-(trifluoromethyl)-2-pyridinyl]-1H-pyrazol-4-yl}propoxy)phenyl]acetic acid], for which the melting point lay within 108 to 109 °C.
For `CCCc1nn(-c2ccc(C(F)(F)F)cn2)cc1CCCOc1c(CC(=O)O)cccc1C(C)C` [Example 359, [3-isopropyl-2-(3-{3-propyl-1-[5-(trifluoromethyl)-2-pyridinyl]-1H-pyrazol-4-yl}propoxy)phenyl]acetic acid] the value was 102 to 103 °C; for `COc1cccc(CC(=O)O)c1OCCCc1cn(-c2cc(C(F)(F)F)ccn2)nc1C(C)C` [Example 363, [2-(3-{3-isopropyl-1-[4-(trifluoromethyl)-2-pyridinyl]-1H-pyrazol-4-yl}propoxy)-3-methoxyphenyl]acetic acid], 127 to 128 °C.
Consider `COc1cccc(CC(=O)O)c1OCCCc1cn(-c2cccc(C(F)(F)F)n2)nc1C(C)C` [Example 365, [2-(3-{3-isopropyl-1-[6-(trifluoromethyl)-2-pyridinyl]-1H-pyrazol-4-yl}propoxy)-3-methoxyphenyl]acetic acid], for which the melting point was 95 to 97 °C.
The value for `COc1cccc(CC(=O)O)c1OCCCc1cn(-c2ccc(C(F)(F)F)nn2)nc1C(C)(C)C` [Example 366, [2-(3-{3-tert-butyl-1-[6-(trifluoromethyl)pyridazin-3-yl]-1H-pyrazol-4-yl}propoxy)-3-methoxyphenyl]acetic acid] was 131 to 132 °C.
With `Cc1cccc(CC(=O)O)c1OCCCc1cn(-c2ccc(Cl)cn2)nc1C(C)(C)C` [Example 371, (2-{3-[3-tert-butyl-1-(5-chloropyridin-2-yl)-1H-pyrazol-4-yl]propoxy}-3-methylphenyl)acetic acid], the melting point fell in the range of 112 to 113 °C.
